The term Ki denotes the equilibrium dissociation constant of an inhibitor or competing ligand from its target.

Where two headings read alike, the source gives them in different places.

Consider 21 compounds from patent publication US20260356809A1 (The United States of America, as represented by the …, priority 2022, published 2026).

One experiment concerns the target T1, human D2L receptor (Homo sapiens, UniProt P14416).
T1 construct: expressed in transfected cells
Kind of experiment: D2R radioligand binding, [3H]N-methylspiperone, HEK293 membranes.

In the next experiment the target is T2, human D3 receptor (Homo sapiens, UniProt P35462).
T2 construct: expressed in transfected cells
Nature of the experiment: D3R radioligand binding, [3H]N-methylspiperone, HEK293 membranes. The settings on record: for D2R Ki / D3R Ki: ratio of Ki values.

The mark [1] stands for this setting: [3H]N-methylspiperone, mean ± SEM of at least three experiments, read-out: D3R Ki ± SEM.

T1 sequence (P14416 whole entry): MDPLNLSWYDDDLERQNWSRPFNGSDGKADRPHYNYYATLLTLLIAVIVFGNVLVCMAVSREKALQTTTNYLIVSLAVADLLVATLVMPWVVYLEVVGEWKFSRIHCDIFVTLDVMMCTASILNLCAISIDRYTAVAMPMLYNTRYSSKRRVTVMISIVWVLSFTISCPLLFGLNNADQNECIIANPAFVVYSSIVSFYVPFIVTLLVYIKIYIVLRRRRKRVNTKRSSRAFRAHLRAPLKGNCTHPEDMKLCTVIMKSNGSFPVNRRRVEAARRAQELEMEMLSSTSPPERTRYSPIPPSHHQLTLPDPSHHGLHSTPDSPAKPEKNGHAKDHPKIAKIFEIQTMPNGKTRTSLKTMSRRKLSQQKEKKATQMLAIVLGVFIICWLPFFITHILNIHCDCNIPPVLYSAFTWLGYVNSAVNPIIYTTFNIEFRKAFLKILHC
T2 sequence (P35462 whole entry): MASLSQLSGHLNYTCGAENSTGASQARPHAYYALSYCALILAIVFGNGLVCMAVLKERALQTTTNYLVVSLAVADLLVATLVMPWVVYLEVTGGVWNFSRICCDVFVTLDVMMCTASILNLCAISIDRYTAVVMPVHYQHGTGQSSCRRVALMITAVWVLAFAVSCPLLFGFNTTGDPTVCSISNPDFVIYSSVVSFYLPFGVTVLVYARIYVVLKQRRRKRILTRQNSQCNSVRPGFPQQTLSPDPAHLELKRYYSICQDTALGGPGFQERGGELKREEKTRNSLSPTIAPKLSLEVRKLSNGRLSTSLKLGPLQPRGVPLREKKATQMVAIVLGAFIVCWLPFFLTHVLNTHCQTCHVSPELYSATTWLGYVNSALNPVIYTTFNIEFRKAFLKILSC

Turning to `CCOCC(=O)N[C@H]1CC[C@H](CCN2CCN(c3cccc(Cl)c3Cl)CC2)CC1` [Compound 14e, N-(trans-4-(2-(4-(2,3-Dichlorophenyl)piperazin-1-yl)ethyl)cyclohexyl)-2-ethoxyacetamide], the inhibition constant (Ki) at human D2L receptor (read-out: D2R Ki ± SEM) was 41.3 ± 3.9 nM; on human D3 receptor it was not above 1 nM; on human D3 receptor (setting [1]), 1.06 ± 0.32 nM.
Turning to `CCCOC(=O)N[C@H]1CC[C@H](CCN2CCN(c3cccc(Cl)c3Cl)CC2)CC1` [Compound 14c, Propyl (trans-4-(2-(4-(2,3-dichlorophenyl)piperazin-1-yl)ethyl)cyclohexyl)carbamate], the results for the Ki at human D2L receptor (read-out: D2R Ki ± SEM) and on human D3 receptor (setting [1]) were 25 ± 2.1 nM and 1.74 ± 0.17 nM, respectively. Moreover, the “D2R Ki / D3R Ki” value on human D3 receptor ([3H]N-methylspiperone) came to 14.4.
`O=C1CCCCN1[C@H]1CC[C@H](CCN2CCN(c3cccc(Cl)c3Cl)CC2)CC1` [Compound 36b, 1-(trans-4-(2-(4-(2,3-Dichlorophenyl)piperazin-1-yl)ethyl)cyclohexyl)piperidin-2-one]: the Ki came to 9.89 ± 2.77 nM on human D2L receptor (read-out: D2R Ki ± SEM) and 1.74 ± 0.46 nM at human D3 receptor (setting [1]).
Turning to `COc1ccccc1N1CCN(CC[C@H]2CC[C@H](NC(=O)N(C)C)CC2)CC1` [Compound 6f, 3-(trans-4-(2-(4-(2-Methoxyphenyl)piperazin-1-yl)ethyl)cyclohexyl)-1,1-dimethylurea], the Ki on human D2L receptor stood at 6.07 ± 2.32 nM; on human D3 receptor it was 1.01 ± 0.32 nM. The “D2R Ki / D3R Ki” value on human D3 receptor ([3H]N-methylspiperone) stood at 6.0.
In the case of `CN(C)C(=O)N[C@H]1CC[C@H](CCN2CCN(c3ncccn3)CC2)CC1` [Compound 6h, 1,1-Dimethyl-3-(trans-4-(2-(4-(pyrimidin-2-yl)piperazin-1-yl)ethyl)cyclohexyl)urea], the Ki is 3440 ± 464 nM at human D2L receptor and 600 ± 136 nM on human D3 receptor. Moreover, the “D2R Ki / D3R Ki” value on human D3 receptor ([3H]N-methylspiperone) worked out at 5.7.
On to `O=C1NCCN1[C@H]1CC[C@H](CCN2CCN(c3cccc(Cl)c3Cl)CC2)CC1` [Compound 35a, 1-(trans-4-(2-(4-(2,3-Dichlorophenyl)piperazin-1-yl)ethyl)cyclohexyl)imidazolidin-2-one], for which the Ki at human D2L receptor (read-out: D2R Ki ± SEM) is 5.66 ± 0.89 nM; on human D3 receptor (setting [1]), 0.438 ± 0.053 nM. Besides, the “D2R Ki / D3R Ki” value on human D3 receptor ([3H]N-methylspiperone) amounted to 12.9.
For `COC(=O)N[C@H]1CC[C@H](CCN2CCN(c3cccc(Cl)c3Cl)CC2)CC1` [Compound 14a, Methyl (trans-4-(2-(4-(2,3-dichlorophenyl)piperazin-1-yl)ethyl)cyclohexyl)carbamate], in that order: 3.72 ± 0.02 nM, 0.323 ± 0.075 nM and 11.5.
As for `CN(C)C(=O)N[C@H]1CC[C@H](CCN2CCN(c3ccc4oc(C(N)=O)cc4c3)CC2)CC1` [Compound 6k, 5-(4-(2-(trans-4-(3,3-Dimethylureido)cyclohexyl)ethyl)piperazin-1-yl)benzofuran-2-carboxamide], the Ki on human D2L receptor amounted to 61100 ± 35100 nM; on human D3 receptor it was 1460 ± 270 nM. The “D2R Ki / D3R Ki” value on human D3 receptor ([3H]N-methylspiperone) came out at 41.9.
Turning to `CCC(=O)N[C@H]1CC[C@H](CCN2CCN(c3cccc(Cl)c3Cl)CC2)CC1` [Compound 14i, N-(trans-4-(2-(4-(2,3-Dichlorophenyl)piperazin-1-yl)ethyl)cyclohexyl)propionamide], the results for the Ki at human D2L receptor (read-out: D2R Ki ± SEM) and at human D3 receptor (setting [1]) were 6.06 ± 1.07 nM and 0.447 ± 0.119 nM, respectively. Moreover, at human D3 receptor ([3H]N-methylspiperone), the “D2R Ki / D3R Ki” value worked out at 13.6.
For `CCCCC(=O)N[C@H]1CC[C@H](CCN2CCN(c3cccc(Cl)c3Cl)CC2)CC1` [Compound 14k, N-(trans-4-(2-(4-(2,3-Dichlorophenyl)piperazin-1-yl)ethyl)cyclohexyl)pentanamide], the Ki was 51.5 ± 18.6 nM on human D2L receptor (read-out: D2R Ki ± SEM) and 2.37 ± 0.6 nM at human D3 receptor (setting [1]). At human D3 receptor ([3H]N-methylspiperone), the “D2R Ki / D3R Ki” value is 21.7.
Take `CN(C)C(=O)N[C@H]1CC[C@H](CCN2CCN(c3ccc(Cl)cc3)CC2)CC1` [Compound 6g, 3-(trans-4-(2-(4-(4-Chlorophenyl)piperazin-1-yl)ethyl)cyclohexyl)-1,1-dimethylurea]: the Ki was 337 ± 24 nM at human D2L receptor and 33.8 ± 0.8 nM at human D3 receptor.
In the case of `CN(C)C(=O)N[C@H]1CC[C@H](CCN2CCC(c3noc4cc(F)ccc34)CC2)CC1` [Compound 6j, 3-(trans-4-(2-(4-(6-Fluorobenzo[d]isoxazol-3-yl)piperidin-1-yl)ethyl)cyclohexyl)-1,1-dimethylurea], the Ki at human D2L receptor came out at 5.26 ± 1.56 nM; at human D3 receptor, 5.37 ± 0.72 nM. On human D3 receptor ([3H]N-methylspiperone), the “D2R Ki / D3R Ki” value was found to be 1.0.
`COCCCC(=O)N[C@H]1CC[C@H](CCN2CCN(c3cccc(Cl)c3Cl)CC2)CC1` [Compound 14f, N-(trans-4-(2-(4-(2,3-Dichlorophenyl)piperazin-1-yl)ethyl)cyclohexyl)-4-methoxybutanamide]: the Ki on human D2L receptor (read-out: D2R Ki ± SEM) was 21.7 ± 3.8 nM; at human D3 receptor (setting [1]), 1.15 ± 0.29 nM. Besides, the “D2R Ki / D3R Ki” value at human D3 receptor ([3H]N-methylspiperone) amounted to 18.9.
For the compound `O=C1OCCCN1[C@H]1CC[C@H](CCN2CCN(c3cccc(Cl)c3Cl)CC2)CC1` [Compound 34b, 3-(trans-4-(2-(4-(2,3-Dichlorophenyl)piperazin-1-yl)ethyl)cyclohexyl)-1,3-oxazinan-2-one], the inhibition constant (Ki) on human D2L receptor (read-out: D2R Ki ± SEM) is 5.46 ± 2.14 nM; on human D3 receptor, not above 1 nM; at human D3 receptor (setting [1]) it was 0.248 ± 0.101 nM.
Regarding `O=C1NCCCN1[C@H]1CC[C@H](CCN2CCN(c3cccc(Cl)c3Cl)CC2)CC1` [Compound 35b, 1-(trans-4-(2-(4-(2,3-Dichlorophenyl)piperazin-1-yl)ethyl)cyclohexyl)tetrahydropyrimidin-2(1H)-one], the results for the Ki on human D2L receptor (read-out: D2R Ki ± SEM) and on human D3 receptor (setting [1]) were 19 ± 4.7 nM and 2.97 ± 0.85 nM, respectively.
The corresponding values for `O=C1CCCN1[C@H]1CC[C@H](CCN2CCN(c3cccc(Cl)c3Cl)CC2)CC1` [Compound 36a, 1-(trans-4-(2-(4-(2,3-Dichlorophenyl)piperazin-1-yl)ethyl)cyclohexyl)100yrrolidine-2-one] are 4.49 ± 0.78 nM and 0.537 ± 0.167 nM.
The corresponding values for `CCOC(=O)N[C@H]1CC[C@H](CCN2CCN(c3cccc(Cl)c3Cl)CC2)CC1` [Compound 14b, Ethyl (trans-4-(2-(4-(2,3-dichlorophenyl)piperazin-1-yl)ethyl)cyclohexyl)carbamate] are 8.4 ± 2.43 nM and 0.965 ± 0.129 nM.
For `CN(C)C(=O)N[C@H]1CC[C@H](CCN2CCN(c3nsc4ccccc34)CC2)CC1` [Compound 6i, 3-(trans-4-(2-(4-(Benzo[d]isothiazol-3-yl)piperazin-1-yl)ethyl)cyclohexyl)-1,1-dimethylurea], the figures for the Ki on human D2L receptor and at human D3 receptor were 4.43 ± 0.38 nM and 4.17 ± 0.33 nM, respectively. Further, the “D2R Ki / D3R Ki” value on human D3 receptor ([3H]N-methylspiperone) stood at 1.1.
As for `CCCC(=O)N[C@H]1CC[C@H](CCN2CCN(c3cccc(Cl)c3Cl)CC2)CC1` [Compound 14j, N-(trans-4-(2-(4-(2,3-Dichlorophenyl)piperazin-1-yl)ethyl)cyclohexyl)butyramide], the Ki on human D2L receptor (read-out: D2R Ki ± SEM) is 25.6 ± 5.7 nM; on human D3 receptor (setting [1]) it was 0.875 ± 0.178 nM. Also, on human D3 receptor ([3H]N-methylspiperone), the “D2R Ki / D3R Ki” value came out at 29.3.
In the case of `CN(C)CC(=O)N[C@H]1CC[C@H](CCN2CCN(c3cccc(Cl)c3Cl)CC2)CC1` [Compound 14g, N-(trans-4-(2-(4-(2,3-dichlorophenyl)piperazin-1-yl)ethyl)cyclohexyl)-2-(dimethylamino)acetamide], the Ki on human D2L receptor (read-out: D2R Ki ± SEM) amounted to 3.72 ± 0.46 nM; on human D3 receptor (setting [1]), 0.398 ± 0.084 nM.
Consider `CCc1cccc(N2CCN(CC[C@H]3CC[C@H](NC(=O)c4cc5ccccc5[nH]4)CC3)CC2)c1Cl` [Compound 10b, N-(trans-4-(2-(4-(2-Chloro-3-ethylphenyl)piperazin-1-yl)ethyl)cyclohexyl)indole-2-carboxamide], for which the Ki at human D2L receptor (read-out: D2R Ki ± SEM) stood at 7.8 ± 1.9 nM.
